Here are results for ten compounds from PMC7414322 (Bioorganic & Medicinal Chemistry Letters, 2020).

The conditions of data set [1]: human, microsomes.
The target of a further data set is hERG (Homo sapiens, UniProt Q12809).
Another data set in a line: in vivo. To be noted: rat, po, 5 mg/kg.
The conditions of data set [2]: mouse, microsomes.

Like-named read-outs stand apart in the source and are kept apart here. Some results are limits rather than exact numbers.

Chain of hERG (Q12809 whole entry): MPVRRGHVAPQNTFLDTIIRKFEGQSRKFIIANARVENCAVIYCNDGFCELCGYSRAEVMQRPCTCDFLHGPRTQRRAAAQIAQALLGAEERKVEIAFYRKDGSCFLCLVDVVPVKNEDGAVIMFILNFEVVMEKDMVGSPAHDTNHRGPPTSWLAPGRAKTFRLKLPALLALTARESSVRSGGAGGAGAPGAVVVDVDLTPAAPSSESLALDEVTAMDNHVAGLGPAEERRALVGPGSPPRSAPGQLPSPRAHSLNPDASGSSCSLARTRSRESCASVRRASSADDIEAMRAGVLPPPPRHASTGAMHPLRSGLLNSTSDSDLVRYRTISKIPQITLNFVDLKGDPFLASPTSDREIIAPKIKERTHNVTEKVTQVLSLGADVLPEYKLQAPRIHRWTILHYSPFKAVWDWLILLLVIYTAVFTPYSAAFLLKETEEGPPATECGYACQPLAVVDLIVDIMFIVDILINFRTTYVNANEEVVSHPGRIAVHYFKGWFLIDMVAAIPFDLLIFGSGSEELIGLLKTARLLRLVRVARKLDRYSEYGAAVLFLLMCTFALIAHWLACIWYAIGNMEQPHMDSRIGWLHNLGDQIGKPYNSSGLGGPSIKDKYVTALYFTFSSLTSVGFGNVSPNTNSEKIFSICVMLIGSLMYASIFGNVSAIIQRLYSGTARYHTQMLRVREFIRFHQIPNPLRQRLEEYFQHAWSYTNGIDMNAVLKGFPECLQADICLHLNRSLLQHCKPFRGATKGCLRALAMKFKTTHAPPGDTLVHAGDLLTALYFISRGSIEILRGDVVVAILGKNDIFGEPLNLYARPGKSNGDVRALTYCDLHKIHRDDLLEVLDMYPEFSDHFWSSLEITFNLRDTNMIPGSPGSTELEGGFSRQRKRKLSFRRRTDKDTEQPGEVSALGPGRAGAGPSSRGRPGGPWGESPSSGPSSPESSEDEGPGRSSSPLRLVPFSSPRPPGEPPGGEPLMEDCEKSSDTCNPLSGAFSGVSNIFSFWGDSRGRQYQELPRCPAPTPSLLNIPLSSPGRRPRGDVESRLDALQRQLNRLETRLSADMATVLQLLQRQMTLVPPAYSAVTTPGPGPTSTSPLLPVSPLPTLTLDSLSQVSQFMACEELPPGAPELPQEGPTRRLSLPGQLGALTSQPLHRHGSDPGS

As for `N#Cc1cccc(CNc2ccc3ncnc(Nc4ccc(F)c(Cl)c4)c3c2)c1` [Compound 20], the “Cytotoxicity, in words” value in the data set on HFL-1, in the data set with Vero, in the data set with L929, in the data set with NIH 3T3 and with CHO-K1 was “no cytotoxicity” each time. The “Cytotoxicity HFL-1” value in the data set with HFL-1 (human) was >100 µM. In addition, the “Microsomal stability, in words” value in data set [1] and in data set [2] was “good microsomal stability” each time. Moreover, in the data set with Vero (African green monkey), the “Cytotoxicity Vero” value was >100 µM. Also, on hERG, the “hERG binding, in words” value is given as “no hERG binding”. In addition, the “Cytotoxicity L929” value in the data set on L929 (mouse) is >100 µM. The same compound returned a Cmax in “in vivo” of 200 ng/mL. Further, in the data set with NIH 3T3 (mouse), the “Cytotoxicity NIH 3T3” value is >100 µM. Moreover, the “Cytotoxicity CHO-K1” value in the data set on CHO-K1 (Chinese hamster) was >100 µM.

As for `N#Cc1ccccc1CNc1ccc2ncnc(Nc3ccc(C(F)(F)F)cc3)c2c1` [Compound 31], the “Inhibitory effect on MERS-CoV infection, in words” value (“Inhibitory effect” below) in the data set with MERS-CoV is listed as “decreased potency”.

Consider `COc1cccc(CNc2ccc3ncnc(Nc4ccc(C(F)(F)F)cc4)c3c2)c1` [Compound 11], for which, in the data set with MERS-CoV, the “Inhibitory effect” value is recorded as “slightly improve the potency”.

On to `N#Cc1cccc(CNc2cc3c(Nc4ccc(F)c(Cl)c4)ncnc3cc2O)c1` [Compound 30], for which, in the data set on MERS-CoV, the “Inhibitory effect” value is listed as “no inhibitory effects”.

Turning to `COc1cccc(CNc2ccc3ncnc(Nc4ccc(F)cc4)c3c2)c1` [Compound 7], the “Inhibitory effect” value in the data set on MERS-CoV is “reduced potency compared to 1”.

As to `Fc1ccc(Nc2ncnc3ccc(NC4CCCCC4)cc23)cc1Cl` [Compound 25], in the data set on MERS-CoV, the “Inhibitory effect” value was “little inhibitory effects”.

`COc1cccc(CNc2ccc3ncnc(Nc4ccc(Br)cc4)c3c2)c1` [Compound 6]: the “Inhibitory effect” value in the data set on MERS-CoV is “maintained the potency”.

With `COc1cccc(CNc2ccc3ncnc(Nc4ccc(C#N)cc4)c3c2)c1` [Compound 9], the “Inhibitory effect” value in the data set with MERS-CoV was “reduced potency compared to 1”.

For `COc1cccc(CNc2ccc3ncnc(Nc4cccc(Cl)c4)c3c2)c1` [Compound 8], the “Inhibitory effect” value with MERS-CoV is recorded as “reduced potency compared to 1”.

With `N#Cc1ccccc1CNc1ccc2ncnc(Nc3ccc(F)c(Cl)c3)c2c1` [Compound 19], in the data set on MERS-CoV, the “Inhibitory effect” value is reported as “no inhibitory effect”.

The Cmax is the maximum level reached in the sampled fluid or tissue.
